Assay results published in US20120220488A1, “HEART AGING BIOMARKERS AND METHODS OF USE” (priority 2009, published 2012).

How the values were obtained:
Type in all cases: in vivo
[1] = tested on: Akt1; assay: Microarray gene expression in heart tissue, Study 2; conditions: Study 2, mouse heart tissue, old (30) + Resveratrol vs old; probe 1425711_a_at
From the text: (§1) Two public rodent cardiac aging gene expression data sets were selected from the NCBI's Gene Expression Omnibus (GEO): (1) The University of Washington's rat study (UW) (Linford J L et al. (2007) Transcriptional Response to Aging and Calorie Restriction in Heart and Adipose Tissue. Aging Cell 6: 673-688)) (Study 1); and (2) LifeGen's mouse study (Barger J L et al. (2008) A Low Dose of Dietary Resveratrol partially Mimics Calorie Restriction and Retards Aging Parameters in Mice. PLoS ONE 3(6): 1-10) (Study 2). Materials and methods for the two studies are shown in the references. A third data set came from an unpublished mouse cardiac aging study. In that study, mice were divided into two groups (n=7) and were fed with control diet according to the proceedings in the Barger study. Mice were sacrificed at the ages of 5 months (young group) and 25 months (old group). Heart tissues were collected and subject to microarray gene expression assays (Study 3). In Study 2 and Study 3, Affymetrix mouse genome 430 2.0 gene chips were used. In Study 1, Affymetrix rat genome 230 2.0 gene chips were used. A description of the three studies is outlined in Table 1.
(§2) Data were first inspected for quality and examined for possible outliers. Three samples, one from each Study, were identified as outliers and were removed from further analysis. Differential genes were identified between young and old groups in each Study using Significance Analysis of Microarrays (SAM) algorithm (Tusher, Tibshirani and Chu (2001) Significance analysis of microarrays applied to the ionizing radiation response. PNAS 2001 98: 5116-5121). The selection criteria include magnitude of expression change (fold>=1.2) and false discovery rate (FDR<0.5%).
(§3) Genes in the Wnt pathway were further examined for their expressional changes. […] Those genes/proteins are listed in Table 2, along with respective representative GenBank Accession Numbers, and the Study 2 results are shown in Table 3. The expression of these genes was also examined in the calorie restricted (CR) group and resveratrol (“Resv”) group.

[2] = tested on: Camk2d; assay: as above; conditions: Study 2, mouse heart tissue, old (30) + Resveratrol vs old; probe 1427763_a_at
From the text: as §1, §2, §3

[3] = tested on: Ccnd1; assay: as above; conditions: Study 2, mouse heart tissue, old (30) + Resveratrol vs old; probe 1448698_at
From the text: as §1, §2, §3

[4] = tested on: Dab2; assay: as above; conditions: Study 2, mouse heart tissue, old (30) + Resveratrol vs old; probe 1430604_a_at
From the text: as §1, §2, §3

[5] = tested on: Dlgh1; assay: as above; conditions: Study 2, mouse heart tissue, old (30) + Resveratrol vs old; probe 1450768_at
From the text: as §1, §2, §3

[6] = tested on: Magi3; assay: as above; conditions: Study 2, mouse heart tissue, old (30) + Resveratrol vs old; probe 1421035_a_at
From the text: as §1, §2, §3

[7] = tested on: Mapk1; assay: as above; conditions: Study 2, mouse heart tissue, old (30) + Resveratrol vs old; probe 1426585_s_at
From the text: as §1, §2, §3

[8] = tested on: Mark2; assay: as above; conditions: Study 2, mouse heart tissue, old (30) + Resveratrol vs old; probe 1435889_at
From the text: as §1, §2, §3

[9] = tested on: Pias4; assay: as above; conditions: Study 2, mouse heart tissue, old (30) + Resveratrol vs old; probe 1455394_at
From the text: as §1, §2, §3

[10] = tested on: Rac1; assay: as above; conditions: Study 2, mouse heart tissue, old (30) + Resveratrol vs old; probe 1423734_at
From the text: as §1, §2, §3

[11] = tested on: Senp2; assay: as above; conditions: Study 2, mouse heart tissue, old (30) + Resveratrol vs old; probe 1425465_a_at
From the text: as §1, §2, §3

[12] = tested on: Smad3; assay: as above; conditions: Study 2, mouse heart tissue, old (30) + Resveratrol vs old; probe 1450471_at
From the text: as §1, §2, §3

[13] = tested on: Ctnnb1 (beta-catenin); assay: as above; conditions: Study 2, mouse heart tissue, old (30) + Resveratrol vs old; for Fold Change Resv vs. Old, Ctnnb1(1): Ctnnb1 probe 1
From the text: as §1, §2
Genes in the Wnt pathway were further examined for their expressional changes. […] Those genes/proteins are listed in Table 2, along with respective representative GenBank Accession Numbers, and the Study 2 results are shown in Table 3. The expression of these genes was also examined in the calorie restricted (CR) group and resveratrol (“Resv”) group. […]

[14] = tested on: Wnt pathway genes; assay: Wnt pathway gene expression in aged heart, Study 2; conditions: Study 2, mouse aged heart; all but three of the genes of Table 2/3
From the text: as §1, with “Mice were sacrificed at the ages of 5 months (young group) and 25 months (old group). Heart tissues were collected and subject to microarray gene expression assays (Study 3). In Study 2 and Study 3, Affymetrix mouse genome 430 2.0 gene chips were used. In Study 1, Affymetrix rat genome 230 2.0 gene chips were used. A description of the three studies is outlined in Table 1.” left out
To determine the impact of gene expression changes in the systems level, pathway analysis was conducted on the data sets from Study 2 and Study 3 using GenMAPP and MAPPFinder software (Salomonis, K Hanspers, A C Zambon, K Vranizan, S C Lawlor, K D Dahlquist, S W Doniger, J Stuart, B R Conklin, and A R Pico. GenMAPP 2: new features and resources for pathway analysis. BMC Bioinformatics, June 2007; 8: 217). […] The inventors determined that the Wnt signaling pathway was among those with most significant associations (adjusted p value of 0.011 in both the Study 2 and Study 3 data sets). […]

Oc1ccc(C=Cc2cc(O)cc(O)c2)cc1 [Resv, resveratrol]
Fold Change Resv vs. Old, Akt1 [1]: −1.315 fold | Fold Change Resv vs. Old, Camk2d [2]: 1.235 fold | Fold Change Resv vs. Old, Ccnd1 [3]: −1.158 fold | Fold Change Resv vs. Old, Dab2 [4]: 1.227 fold | Fold Change Resv vs. Old, Dlgh1 [5]: 1.150 fold | Fold Change Resv vs. Old, Magi3 [6]: 1.244 fold | Fold Change Resv vs. Old, Mapk1 [7]: −1.020 fold | Fold Change Resv vs. Old, Mark2 [8]: −2.113 fold | Fold Change Resv vs. Old, Pias4 [9]: −1.495 fold | Fold Change Resv vs. Old, Rac1 [10]: 1.509 fold | Fold Change Resv vs. Old, Senp2 [11]: 1.261 fold | Fold Change Resv vs. Old, Smad3 [12]: 1.285 fold | Fold Change Resv vs. Old, Ctnnb1(1) [13]: 2.787 fold | Fold Change Resv vs. Old, Ctnnb1(1) ([13]; listed as Resveratrol): 2.79 fold | Fold Change Resv vs. Old, Ctnnb1(2) ([13]; Ctnnb1 probe 2): 2.017 fold | Expression of Wnt pathway genes decreased in aged heart, after treatment [14]: elevated to their young levels
